4 compounds from ChEMBL document CHEMBL3826903, “Extended rhodamine photosensitizers for photodynamic therapy of cancer cells” (Bioorg Med Chem, 2016) can be followed below.

In general, EC50 refers to the concentration at which the effect is half-maximal.

Series [1] can be described thus: Drug localization in mitochondria of human HUT78 cells assessed as bright detail similarity scores at 0.2 uM incubated for 15 mins in presence of MTG by flow cytometry. Format: ADME. The note with it: hut78, 0.25 h. Background: A flow cytometer gives signals particle by particle.
Series [2] can be described thus: Drug localization in mitochondria of mouse Colon 26 cells assessed as bright detail similarity scores at 0.2 uM incubated for 15 mins in presence of MTG by flow cytometry. In kind it is ADME. Particulars: colon 26, 0.25 h.
Series [3] deals with Colon 26. Kind of series: Dark toxicity against mouse Colon 26 cells assessed as cell survival fraction at 1 uM incubated for 1 hr in dark measured after 48 hrs by SRB assay. Format: cell-based. The note with it: colon 26, 1 µM. In general terms: In SRB staining, fixed cells bind dye roughly in proportion to their protein.
Series [4] deals with Colon 26. The series can be described thus: Phototoxicity against mouse Colon 26 cells assessed as cell survival fraction incubated for 1 hr in dark followed by irradiation with 1 J/cm'-2 light from tunable dye laser at 660 +/- 2 nm measured after 48 hrs by SRB assay. Format: functional, cell-based. Particulars: Colon 26, light or radiation study.
Series [5] can be described thus: Induction of singlet oxygen assessed as quantum yields for generation of singlet oxygen by luminescence spectroscopy. Format: physicochemical.
Series [6] can be described thus: Dark toxicity against mouse Colon 26 cells assessed as cell survival fraction incubated for 1 hr in dark measured after 48 hrs by SRB assay. In kind it is cell-based. Particulars: read-out: LD50.
Series [7] is described as follows: Therapeutic index, ratio of LD50 for dark toxicity against mouse Colon 26 cells to EC50 for phototoxicity against mouse Colon 26 cells at 1 Jcm'-2 of irradiation with 660 +/- 2 nm nm light. In kind it is cell-based. Particulars: read-out: Ratio LD50/EC50.
The nature of series [8]: Therapeutic index, ratio of LD50 for dark toxicity against mouse Colon 26 cells to EC50 for phototoxicity against mouse Colon 26 cells at 10 Jcm'-2 of irradiation with 690 +/- 2 nm light. Format: cell-based. The note with it: read-out: Ratio LD50/EC50.
Series [9] relates to Colon 26. Kind of series: Phototoxicity against mouse Colon 26 cells assessed as cell survival fraction incubated for 1 hr in dark followed by irradiation with 10 J/cm'-2 light from tunable dye laser at 690 +/- 2 nm measured after 48 hrs by SRB assay. Format: functional, cell-based. The note with it: Colon 26, light or radiation study.
The subject of series [10] is Colon 26. Kind of series: Phototoxicity against mouse Colon 26 cells assessed as cell survival fraction incubated for 1 hr in dark followed by irradiation with 5 J/cm'-2 light from tunable dye laser at 690 +/- 2 nm measured after 48 hrs by SRB assay. In kind it is functional, cell-based. Particulars: Colon 26, light or radiation study.
Series [11] can be described thus: Therapeutic index, ratio of LD50 for dark toxicity against mouse Colon 26 cells to EC50 for phototoxicity against mouse Colon 26 cells at 5 Jcm'-2 of irradiation with 690 +/- 2 nm light. The note with it: read-out: Ratio LD50/EC50. In kind it is cell-based.
Series [12] concerns Colon 26. The series can be described thus: Phototoxicity against mouse Colon 26 cells assessed as cell survival fraction incubated for 1 hr in dark followed by irradiation with 1 J/cm'-2 light from tunable dye laser at 642 +/- 2 nm measured after 48 hrs by SRB assay. In kind it is functional, cell-based. The note with it: Colon 26, light or radiation study.
The nature of series [13]: Therapeutic index, ratio of LD50 for dark toxicity against mouse Colon 26 cells to EC50 for phototoxicity against mouse Colon 26 cells at 10 Jcm'-2 of irradiation with 700 +/- 2 nm light. Format: cell-based. The note with it: read-out: Ratio LD50/EC50.
Series [14] is described as follows: Therapeutic index, ratio of LD50 for dark toxicity against mouse Colon 26 cells to EC50 for phototoxicity against mouse Colon 26 cells at 5 Jcm'-2 of irradiation with 700 +/- 2 nm light. Particulars: read-out: Ratio LD50/EC50. In kind it is cell-based.
In series [15] the test system is Colon 26. The series can be described thus: Phototoxicity against mouse Colon 26 cells assessed as cell survival fraction incubated for 1 hr in dark followed by irradiation with 5 J/cm'-2 light from tunable dye laser at 700 +/- 2 nm measured after 48 hrs by SRB assay. In kind it is functional, cell-based. The note with it: Colon 26, light or radiation study.
The test system of series [16] is Colon 26. Kind of series: Phototoxicity against mouse Colon 26 cells assessed as cell survival fraction incubated for 1 hr in dark followed by irradiation with 10 J/cm'-2 light from tunable dye laser at 700 +/- 2 nm measured after 48 hrs by SRB assay. In kind it is functional, cell-based. The note with it: Colon 26, light or radiation study.

Where only a bound is given, the exact number is not on record here.

With `CN(C)c1ccc2c(-c3ccccc3)c3ccc4cc(=[N+](C)C)ccc4c3[se]c2c1.F[P-](F)(F)(F)(F)F`, the Drug uptake is 2.458 in series [1] and 1.38 in series [2]. In addition, the Activity entry in the series on Colon 26 [3] is recorded as “Non-toxic”. The EC50 in the series with Colon 26 [4] was 64 nM. Also, the “Singlet oxygen quantum yield” value in series [5] came to 0.65. The CC50 at 1 h in [6] is above 1000 nM. Besides, the selectivity ratio in [7] was above 15.
For the compound `CN(C)c1ccc2c(-c3ccccc3)c3cc4ccc(=[N+](C)C)cc4cc3sc2c1.F[P-](F)(F)(F)(F)F`, the Drug uptake stood at 2.153 in series [1] and 1.2 in [2]. In the series with Colon 26 [3], the Activity result is listed as “Toxic”. The values for the selectivity ratio in series [8] and in [11] were 5.1 and 3.3, respectively. In addition, the half-maximal effective concentration (EC50) in the series on Colon 26 [9] was determined as 90 nM; in the series on Colon 26 [10] it was 140 nM. Moreover, the “Singlet oxygen quantum yield” value in [5] was below 0.05. In addition, the CC50 at 1 h in series [6] worked out at 460 nM.
With `CN(C)c1ccc2c(-c3ccccc3)c3ccc4cc(=[N+](C)C)ccc4c3sc2c1.F[P-](F)(F)(F)(F)F`, the results for the Drug uptake in [1] and in series [2] were 2.82 and 1.77, respectively. In addition, in the series on Colon 26 [3], the Activity entry is “Non-toxic”. For the same compound, the EC50 with Colon 26 [12] was determined as 280 nM. Also, the “Singlet oxygen quantum yield” value in series [5] is reported as 0.15.
As to `CN(C)c1ccc2c(-c3ccccc3)c3cc4ccc(=[N+](C)C)cc4cc3[se]c2c1.F[P-](F)(F)(F)(F)F`, the figures for the selectivity ratio in series [13] and in [14] were 11 and 8.3, respectively. Also, the EC50 with Colon 26 [15] amounted to 240 nM; in the series on Colon 26 [16] it was 180 nM. Moreover, the values for the Drug uptake in series [1] and in series [2] were 0.683 and 0.7204, respectively. In the series on Colon 26 [3], the Activity result was “Toxic”. In addition, the “Singlet oxygen quantum yield” value in series [5] is on record as below 0.05. Besides, the CC50 at 1 h in series [6] came out at 2000 nM.
